Results published in ChEMBL document CHEMBL1122947, “Fluorine-containing amino acids and their derivatives. 4. Synthesis and antibacterial activity of threo and erythro 1-fluorodehydroxylated chloramphenicol analogues” (1985).
Values after ≈ are worked out from the molar mass of the structure shown.

Tests used:
Staphylococcus aureus = assay: In vitro antibacterial activity against Staphylococcus aureus; assay type: functional
Streptococcus pyogenes = assay: In vitro antibacterial activity against Streptococcus pyogenes; assay type: functional
Pseudomonas aeruginosa = assay: In vitro antibacterial activity against Pseudomonas aeruginosa; assay type: functional
Trichophyton asteroides = assay: In vitro antifungal activity against Trichophyton asteroides
Klebsiella pneumoniae = assay: In vitro antibacterial activity against Klebsiella pneumoniae; assay type: functional
Escherichia coli = assay: In vitro antibacterial activity against Escherichia coli; assay type: functional
Trichophyton benhamiae = assay: In vitro antifungal activity against Trichophyton asteroides; assay type: functional
Aspergillus fumigatus = assay: In vitro antifungal activity against Aspergillus fumigatus; assay type: functional
[1] = Klebsiella pneumoniae, read-out: MIC

MIC (Staphylococcus aureus)	MIC (Streptococcus pyogenes)	MIC (Pseudomonas aeruginosa)	MIC (Trichophyton asteroides)	MIC (Klebsiella pneumoniae; [1])	MIC (Escherichia coli)	MIC (Trichophyton benhamiae)	MIC (Aspergillus fumigatus)	MIC (Klebsiella pneumoniae)	SMILES
> 100 µg/mL	> 100 µg/mL	> 100 µg/mL	> 100 µg/mL	> 100 µg/mL	> 100 µg/mL	> 100 µg/mL	> 100 µg/mL		O=C(NC(CO)C(F)c1ccccc1)C(Cl)Cl (stereo not drawn)
> 100 µg/mL	> 100 µg/mL	> 100 µg/mL	> 100 µg/mL	50 µg/mL (≈ 154 µM)	> 100 µg/mL	> 100 µg/mL	> 100 µg/mL		O=C(NC(CO)C(F)c1ccc([N+](=O)[O-])cc1)C(Cl)Cl (stereo in doubt; 11)
> 100 µg/mL	> 100 µg/mL	> 100 µg/mL	> 100 µg/mL	> 100 µg/mL	> 100 µg/mL	> 100 µg/mL	> 100 µg/mL		O=C(NC(CO)C(F)c1ccccc1[N+](=O)[O-])C(Cl)Cl (stereo not drawn)
> 100 µg/mL	> 100 µg/mL	> 100 µg/mL	> 100 µg/mL	> 100 µg/mL	> 100 µg/mL	> 100 µg/mL	> 100 µg/mL		O=C(NC(CO)C(F)c1cccc([N+](=O)[O-])c1)C(Cl)Cl (stereo not drawn)
								>100 µg/mL	O=C(NC(CO)C(F)c1ccc([N+](=O)[O-])cc1)C(Cl)Cl (stereo in doubt; 3)
